# Assays:
# Assay in all cases: relative viability (nuclei count vs DMSO), 5 days (fraction); higher = more cells survive
# [1] = compound: Cc1ccc(NC(=O)c2ccc(CN3CCN(C)CC3)cc2)cc1Nc1nc(-c2cccnc2)cs1 [Masitinib] + CCNC(=O)c1noc(-c2cc(C(C)C)c(O)cc2O)c1-c1ccc(CN2CCOCC2)cc1 [Luminespib] (partner 0.01 µM)
# Method in brief: (§1)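 One day after seeding in 1536-well plates, lung cancer cell lines were dosed by pin tool. Dosing was either single-drug or a fixed anchor-drug dose plus five library-drug doses (not always all listed) in √10 steps. After 5 days, nuclei were stained in one fix-and-stain step and counted on 4× images, and relative viability is the nuclei count of treated wells over that of vehicle wells, given as the median of duplicate plates.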
# [2] = compound: CC1=CC(=CC=C1)NC2=NC(=CS2)C3=CC=NC=C3 + Cc1nc(Nc2ncc(C(=O)Nc3c(C)cccc3Cl)s2)cc(N2CCN(CCO)CC2)n1 [Dasatinib] (partner 0.075 µM)
# Method in brief: as §1
# [3] = compound: Cc1ccc(NC(=O)c2ccc(CN3CCN(C)CC3)cc2)cc1Nc1nc(-c2cccnc2)cs1 [Masitinib] + Cc1nc(NC(=O)N2CCC[C@H]2C(N)=O)sc1-c1ccnc(C(C)(C)C(F)(F)F)c1 [Alpelisib] (partner 2 µM)
# Method in brief: as §1
# [4] = compound: Cc1ccc(NC(=O)c2ccc(CN3CCN(C)CC3)cc2)cc1Nc1nc(-c2cccnc2)cs1 [Masitinib] + Nc1ncn([C@H]2C[C@H](O)[C@@H](CO)O2)c(=O)n1 [Decitabine] (partner 2 µM)
# Method in brief: as §1
cell line,measurement,setting,value
UMC-11,relative viability,[1]; first compound 0.03162 µM,1.08
same,relative viability,[1]; first compound 0.1 µM,1.13
same,relative viability,[1]; first compound 0.3162 µM,1.17
same,relative viability,[1]; first compound 1 µM,1.12
same,relative viability,[2]; first compound 0.08 µM,0.477
same,relative viability,[2]; first compound 0.253 µM,0.494
same,relative viability,[2]; first compound 0.8 µM,0.468
same,relative viability,[2]; first compound 2.53 µM,0.481
same,relative viability,[2]; first compound 8 µM,0.534
same,relative viability,[3]; first compound 0.01 µM,0.899
same,relative viability,[3]; first compound 0.03162 µM,0.713
same,relative viability,[3]; first compound 0.1 µM,1.12
same,relative viability,[3]; first compound 0.3162 µM,1.17
same,relative viability,[3]; first compound 1 µM,1.2
same,relative viability,[4]; first compound 0.01 µM,0.565
same,relative viability,[4]; first compound 0.03162 µM,0.641
same,relative viability,[4]; first compound 0.1 µM,0.692
same,relative viability,[4]; first compound 0.3162 µM,0.608
same,relative viability,[4]; first compound 1 µM,0.596

# Reference: the supplement of paper PMC10307832
